Tests used:
[1] = molecular target: T1, human PI3Kα (PIK3CA/PIK3R1) (Homo sapiens, UniProt P42336); assay: lipid kinase assay (ADP-Glo), PI3Kα; format: biochemical
T1 construct: purchased ProQinase, Germany 1161‐1165‐1
Description: (§1) In vitro selection, lipid kinase assay: To determine the inhibitory activity of the new molecular entities on PI3K enzyme, a lipid kinase assay was performed: recombinant proteins (30 ng), human PI3Kα (PIK3CA/PIK3R1, #1161‐1165‐1 ProQinase–Germany), hPI3Kβ (PIK3CB wt/PIK3R1, #1168‐1165‐1 ProQinase, Germany), hPI3Kγ (PIK3CG, #1163‐0000‐1 ProQinase, Germany), hPI3Kδ (PIK3CD/PIK3R1, #1162–1165‐1 ProQinase, Germany), hPI3K‐C2α (PIK3C2A, #14‐906 Merck Millipore_Merck KGaA, Germany), hPI3K‐C2β (PIK3C2B, #14‐907 Merck Millipore_Merck KGaA, Germany), hPI3K‐c2γ (PIK3C2G, #1207‐0000‐1 ProQinase, Germany), and hVps34 (PIK3C3, #1160‐0000‐1 ProQinase, Germany), were incubated in kinase buffer {12.5 μL; 20 mM Tris‐HCl pH 7.5, 10 mM MgCl2, 10 μM ATP, 0.05 mg mL^−1 BSA, 0.5 mM EDTA, 5 mM HEPES pH 7.5, for PI3Kα,PI3Kβ, PI3Kγ, PI3Kδ, PI3KC‐2α, and PI3KC‐2γ; 15 mM MnCl2, 5 mM EGTA, 100 μM ATP, 50 mM HEPES pH 7.5, 100 mM NaCl, and 0.03 % CHAPS for PI3K‐C2β and VPS34 {BSA=bovine serum albumin; EDTA=ethylenediaminetetraacetic acid; HEPES=4‐(2‐hydroxyethyl)‐1‐piperazineethanesulfonic acid; EGTA=ethylene glycol‐bis(2‐aminoethylether)‐N,N,N′,N′‐tetraacetic acid; CHAPS=3‐[(3‐cholamidopropyl)dimethylammonio]‐1‐propanesulfonate}. In the reaction, the ATP concentration used for different PI3Ks was defined on the basis of the Michaelis–Menten kinetics of each enzyme, provided by the supplier. Reaction was performed in presence of 0.5 mg mL^−1 lipid micelles (1:1 phosphatidylinositol/phosphatidylserine) and in the absence (DMSO alone) or presence of increasing concentrations of each compound (from 0.1 nM to 30 μM). The mixture was kept at room temperature (RT) for 30 min for PI3Kα, PI3Kβ, PI3Kγ, PI3Kδ, PI3KC‐2α, and PI3KC‐2γ and for 1 h for PI3K‐C2β and PI3K‐C3. The amount of ADP produced in the reaction was measured by using the ADP‐Glo Kinase Assay kit from Promega (#V9102) and a luminescence reader (Glomax multi detection system, Promega, model number 9301‐010).
(§2) The residual PI3K lipid kinase activity in the presence of each molecule at different concentrations was related to the control, intended as the recombinant protein in the presence of DMSO alone and was expressed as a percentage. To derive the IC50 value, all data (% of lipid kinase activity) were plotted on a dose–response curve (Graph Pad software), and the IC50 was calculated by using nonlinear regression fit (equation [log agonist] versus response).

hPI3Kγ (PIK3CG) = molecular target: T2, hPI3Kγ (PIK3CG) (Homo sapiens, UniProt P48736); assay: lipid kinase assay (ADP-Glo), PI3Kγ; format: biochemical
T2 construct: purchased ProQinase, Germany 1163‐0000‐1
T2 sequence (P48736 whole entry): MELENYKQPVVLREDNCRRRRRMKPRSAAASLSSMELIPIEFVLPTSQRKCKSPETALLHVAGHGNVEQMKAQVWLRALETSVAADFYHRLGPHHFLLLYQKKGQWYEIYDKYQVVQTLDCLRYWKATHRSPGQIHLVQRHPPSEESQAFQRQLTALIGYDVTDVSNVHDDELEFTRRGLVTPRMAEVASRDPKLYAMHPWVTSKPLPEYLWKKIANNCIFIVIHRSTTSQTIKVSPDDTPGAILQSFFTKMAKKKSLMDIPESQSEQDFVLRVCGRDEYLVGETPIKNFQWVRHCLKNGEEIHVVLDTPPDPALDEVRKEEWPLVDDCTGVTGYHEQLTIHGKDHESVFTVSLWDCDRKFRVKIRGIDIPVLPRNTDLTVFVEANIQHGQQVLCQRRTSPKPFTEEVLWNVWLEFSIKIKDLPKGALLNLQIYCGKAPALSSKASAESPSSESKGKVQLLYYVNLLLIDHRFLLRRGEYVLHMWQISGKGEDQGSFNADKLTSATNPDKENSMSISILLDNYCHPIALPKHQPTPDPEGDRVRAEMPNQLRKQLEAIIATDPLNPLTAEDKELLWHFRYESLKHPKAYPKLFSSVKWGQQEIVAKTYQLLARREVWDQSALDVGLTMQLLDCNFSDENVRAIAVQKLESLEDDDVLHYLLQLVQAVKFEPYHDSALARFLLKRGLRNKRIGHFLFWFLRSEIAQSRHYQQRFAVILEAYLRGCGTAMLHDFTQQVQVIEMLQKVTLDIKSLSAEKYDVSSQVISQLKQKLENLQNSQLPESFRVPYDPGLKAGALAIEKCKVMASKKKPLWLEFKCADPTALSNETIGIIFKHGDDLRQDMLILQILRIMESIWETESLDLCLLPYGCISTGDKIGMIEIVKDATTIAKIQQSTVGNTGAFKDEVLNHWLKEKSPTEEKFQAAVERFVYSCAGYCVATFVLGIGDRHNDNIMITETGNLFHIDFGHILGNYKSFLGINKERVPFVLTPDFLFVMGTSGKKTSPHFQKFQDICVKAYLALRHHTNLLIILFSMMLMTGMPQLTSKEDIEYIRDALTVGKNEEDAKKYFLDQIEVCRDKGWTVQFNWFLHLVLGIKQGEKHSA
Description: as §1, §2

[2] = tested on: PI3K/Akt signaling in NIH3T3 cells; assay: insulin-stimulated Akt phosphorylation, Western blot, NIH3T3 cells; format: cell-based; settings: 1 μM insulin for 5 min, immunoblot
Description: Figure 8 Treatment with 64 prodrug inhibited PI3K/Akt signaling. NIH3T3 cells were […] for 12 h and were treated with the indicated concentrations of 37 and 64. Cells were next stimulated with 1 μM insulin for 5 min, and total cell lysates were prepared. Immunoblot analysis was conducted for the expression levels of p‐AKT and GAPDH. The immunoblot is representative of three independent experiments.
NIH3T3 cells were seeded in a 96‐well plate and starved overnight (ON) with serum‐free DMEM high glucose GlutaMAXTM (Gibco) supplemented with 5000 U mL^−1 penicillin–streptomycin (Gibco). Cells were then incubated for 1 h with increasing concentrations of 64, 37, or DMSO. Subsequently, cells were stimulated for 5 min with 1 μM of insulin (#91077C, Sigma–Aldrich, USA). Cells were lysed and protein extracts were analyzed by western blot to assess the phosphorylation level of Akt on Ser473.

[3] = tested on: PI3K/Akt signaling in PC3 cells; assay: PI3K/Akt signaling, Western blot, PC3 cells; format: cell-based; settings: 12 h treatment, immunoblot
Description: PC3 cells were treated with the indicated concentrations of 64 for 12 h. At the end of treatment, cells were harvested and total cell lysates were prepared. Immunoblot analysis was performed to analyze the expression levels of p‐Akt (T308 and S473), p‐PRAS40 (T246; a target of Akt), as well as the levels of p‐p70S6K (T389), p‐GSK3α/β (S9), and p‐FOXO3A (T32). The figure is representative of at least three independent experiments.
Western blot analysis: PC3 cells were seeded in 96‐well plates in the presence of free Dulbecco's modified Eagle's medium (DMEM) high‐glucose GlutaMAX^TM (Gibco), 10 % fetal bovine serum (Invitrogen) supplemented with 5000 U mL^−1 penicillin–streptomycin (Gibco). Subsequently, PC3 cells were incubated with increasing concentrations of […] for 12 h. Cells were then lysed with a lysis buffer containing 20 mM Tris‐HCl pH 8, 138 mM NaCl, 2.7 mM KCl, 1 mM CaCl2, 5 mM EDTA pH 8, 1 mM MgCl2, 5 % glycerol, 1 % Triton X‐100, and protein extracts were analyzed by Western blot analysis. […]

[4] = metabolic stability in rat liver microsomes (RLM); format: in vitro ADME; settings: 50 μM substrate, 60 min

T1 sequence (P42336 whole entry): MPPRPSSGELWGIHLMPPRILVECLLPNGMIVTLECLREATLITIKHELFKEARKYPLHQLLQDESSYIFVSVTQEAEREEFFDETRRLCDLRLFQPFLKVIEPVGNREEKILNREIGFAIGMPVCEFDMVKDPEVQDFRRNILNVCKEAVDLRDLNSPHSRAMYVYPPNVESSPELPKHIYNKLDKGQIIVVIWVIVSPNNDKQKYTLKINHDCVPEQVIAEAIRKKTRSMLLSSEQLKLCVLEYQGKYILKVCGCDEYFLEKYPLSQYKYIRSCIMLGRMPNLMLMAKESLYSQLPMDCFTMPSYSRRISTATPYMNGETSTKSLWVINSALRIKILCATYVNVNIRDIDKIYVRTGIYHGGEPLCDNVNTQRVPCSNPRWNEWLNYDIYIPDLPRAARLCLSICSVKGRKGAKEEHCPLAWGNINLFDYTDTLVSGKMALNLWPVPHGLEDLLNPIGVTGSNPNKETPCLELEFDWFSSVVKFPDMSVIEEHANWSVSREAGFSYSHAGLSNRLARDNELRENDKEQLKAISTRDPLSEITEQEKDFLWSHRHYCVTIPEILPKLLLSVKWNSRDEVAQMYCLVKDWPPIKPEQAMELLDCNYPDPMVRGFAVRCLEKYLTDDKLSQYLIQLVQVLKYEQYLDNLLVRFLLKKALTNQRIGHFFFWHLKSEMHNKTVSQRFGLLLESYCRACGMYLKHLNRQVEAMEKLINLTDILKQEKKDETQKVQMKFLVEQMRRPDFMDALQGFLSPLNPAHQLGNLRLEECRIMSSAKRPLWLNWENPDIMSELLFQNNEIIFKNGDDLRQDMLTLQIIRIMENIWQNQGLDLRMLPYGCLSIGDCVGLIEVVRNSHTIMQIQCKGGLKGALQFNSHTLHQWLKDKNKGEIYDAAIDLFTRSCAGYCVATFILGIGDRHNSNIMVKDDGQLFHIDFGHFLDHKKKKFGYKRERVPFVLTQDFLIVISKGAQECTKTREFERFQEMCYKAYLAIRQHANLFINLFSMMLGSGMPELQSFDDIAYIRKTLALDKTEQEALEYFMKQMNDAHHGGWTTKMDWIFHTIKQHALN
T1 sequence (P27986 whole entry partner): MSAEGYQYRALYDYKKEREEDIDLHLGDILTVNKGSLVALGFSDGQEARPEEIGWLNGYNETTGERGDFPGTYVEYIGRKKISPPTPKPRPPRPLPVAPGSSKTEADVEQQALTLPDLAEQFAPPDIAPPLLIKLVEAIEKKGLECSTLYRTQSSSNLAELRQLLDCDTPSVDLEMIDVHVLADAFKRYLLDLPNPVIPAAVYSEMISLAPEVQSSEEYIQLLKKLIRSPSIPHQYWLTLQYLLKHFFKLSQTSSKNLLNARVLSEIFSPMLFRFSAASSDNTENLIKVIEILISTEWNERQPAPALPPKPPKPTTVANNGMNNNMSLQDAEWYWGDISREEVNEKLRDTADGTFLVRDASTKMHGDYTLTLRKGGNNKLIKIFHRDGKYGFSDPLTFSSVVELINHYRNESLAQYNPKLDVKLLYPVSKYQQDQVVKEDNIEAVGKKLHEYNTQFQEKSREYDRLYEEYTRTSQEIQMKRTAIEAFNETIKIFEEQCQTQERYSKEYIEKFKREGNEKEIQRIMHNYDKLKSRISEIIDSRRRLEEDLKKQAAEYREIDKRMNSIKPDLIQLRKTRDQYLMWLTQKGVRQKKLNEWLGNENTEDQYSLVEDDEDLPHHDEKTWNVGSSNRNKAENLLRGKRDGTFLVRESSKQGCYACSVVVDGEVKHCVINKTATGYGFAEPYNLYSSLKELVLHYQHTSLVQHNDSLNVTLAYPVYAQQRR

Row | inhibition of PI3Kα activity ([1]; at 100 nM) | % residual substrate, RLM (without NADPH) [4] [%] | SMILES | IC50 ([1]; Table 2, mean of at least three determinations, 95 % confidence intervals, read-out: IC50 PI3Kα) [nM] | inhibition at 1 µM ([1]; determined at 1 μM, at least triplicate, read-out: Inhibitory activity, PI3K isoform α) [%] | IC50 (hPI3Kγ (PIK3CG); Table 2, mean of at least three determinations, 95 % confidence intervals) [nM] | inhibition at 1 µM (hPI3Kγ (PIK3CG); determined at 1 μM, at least triplicate, read-out: Inhibitory activity, PI3K isoform γ) [%] | Akt phosphorylation after insulin stimulation [2] | levels of p-Akt and Akt effectors [3]
1 | – | – | O=C(O)c1cccc(Cn2cc(-c3cccc4c(=O)cc(N5CCOCC5)[nH]c34)nn2)c1 [Compound 37, 3‐{[4‐(2‐Morpholino‐4‐oxo‐1,4‐dihydroquinolin‐8‐yl)‐1H‐1,2,3‐triazol‐1‐yl]methyl}benzoic acid] | 18 ± 4 | > 50 | 186 ± 43 | > 50 | did not decrease Akt phosphorylation | –
2 | not able to inhibit PI3Kα activity | 32 | COC(=O)c1cccc(Cn2cc(-c3cccc4c(=O)cc(N5CCOCC5)[nH]c34)nn2)c1 [Compound 64, Methyl 3‐{[4‐(2‐morpholino‐4‐oxo‐1,4‐dihydroquinolin‐8‐yl)‐1H‐1,2,3‐triazol‐1‐yl]methyl}benzoate] | – | – | – | – | able to inhibit the PI3K‐signaling pathway in a dose‐dependent manner | attenuated, in a dose‐dependent manner, the levels of p‐Akt
